Patent publication US10000787B2, “Methods for diagnosing bacterial infections” (STC.UNM, priority 2012, dated 2018)

Biological target: T1, pHPA decarboxylase (Clostridioides difficile, UniProt Q84F16)
T1 construct: Isolated cell free extract of C. difficile; endogenous in cells; host or cells: C. difficile cell-free extract
Assay: estimated ^13CO2 production from labeled substrate by pHPA decarboxylase in a C. difficile infection
Assay type: in vivo
Conditions: infection in which 10 mg of bacterial protein is present; worked out from 12 mU per mg of protein pHPA decarboxylase in isolated cell free extract of C. difficile
Method: The compositions of the invention can also be administered intravenously. Isolated cell free extract of C. difficile contains 12 mU per mg of protein of the activating enzyme pHPA decarboxylase. This correlates to the production of 2.7 mL of ^13CO2 per minute in an infection in which 10 mg of bacterial protein is present when a patient is treated with a compound of the invention, for example, ^13C-hydroxyphenylacetate. Oftentimes, a patient is infected with much more than 10 mg of bacterial protein with a C. difficile infection.
Assuming 15 liters of air is respired per minute, and with 4% exhaled CO2, a patient will exhale about 600 ml of CO2 per minute, of which approximately 6.6 mLs will be ^13CO2. […] Thus, efficient delivery of isotopically-labeled compound is important. Preferably, an intravenous dosage form is administered to the patient, leading to rapid increases in intestinal levels, and allowing breath testing from 10 to 120 minutes after dosage. Such dosage forms are sterile and particle-free. Preparation methods for such dosage forms are known in the art.

T1 sequence (Q84F15 whole entry): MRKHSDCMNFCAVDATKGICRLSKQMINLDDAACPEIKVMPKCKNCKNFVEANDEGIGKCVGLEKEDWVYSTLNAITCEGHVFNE
T1 sequence (Q84F16 whole entry): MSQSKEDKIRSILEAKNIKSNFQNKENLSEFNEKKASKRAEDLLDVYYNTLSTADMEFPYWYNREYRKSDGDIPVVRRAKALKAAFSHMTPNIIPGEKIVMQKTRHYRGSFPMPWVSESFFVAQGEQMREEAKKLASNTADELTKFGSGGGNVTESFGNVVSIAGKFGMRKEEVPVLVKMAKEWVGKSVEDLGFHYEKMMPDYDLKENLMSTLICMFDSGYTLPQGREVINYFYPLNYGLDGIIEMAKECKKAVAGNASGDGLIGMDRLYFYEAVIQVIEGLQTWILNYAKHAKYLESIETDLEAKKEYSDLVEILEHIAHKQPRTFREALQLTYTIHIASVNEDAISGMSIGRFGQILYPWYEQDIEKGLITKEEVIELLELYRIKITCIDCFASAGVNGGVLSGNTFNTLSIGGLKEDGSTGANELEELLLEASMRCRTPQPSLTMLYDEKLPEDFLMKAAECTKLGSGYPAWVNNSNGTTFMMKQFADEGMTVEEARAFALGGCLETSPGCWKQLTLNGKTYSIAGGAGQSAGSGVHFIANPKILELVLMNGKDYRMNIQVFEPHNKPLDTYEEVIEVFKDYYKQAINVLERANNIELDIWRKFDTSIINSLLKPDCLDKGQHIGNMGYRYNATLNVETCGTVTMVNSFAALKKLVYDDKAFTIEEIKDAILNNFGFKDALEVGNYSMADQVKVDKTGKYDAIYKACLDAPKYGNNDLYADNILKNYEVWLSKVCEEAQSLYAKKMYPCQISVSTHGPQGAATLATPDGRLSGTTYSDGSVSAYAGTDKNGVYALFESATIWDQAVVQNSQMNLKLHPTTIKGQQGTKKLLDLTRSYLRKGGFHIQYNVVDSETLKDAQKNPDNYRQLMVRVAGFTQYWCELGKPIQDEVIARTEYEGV

In the case of ^13C-hydroxyphenylacetate, the “production of ^13CO2” value is reported as 2.7 mL per minute.
